In US8569302B2, “Inhibitors of flaviviridae viruses” (Gilead Sciences, Inc., priority 2009, dated 2013):

What follows are compounds tested on human hepatoma Huh-7 cell line harboring a HCV replicon (assay: HCV replicon assay (inhibition of viral replication, luciferase readout)). Conditions: Hepatitis C virus, 72 h, Huh-7 HCV replicon cells, 3 days incubation.
Type: cell-based
In short: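 Read-outs: luciferase luminescence for replication inhibition, corrected by ITMN-191 (100% inhibition) wells, and calcein AM fluorescence for cytotoxicity. Cells were treated for 3 days at 37 °C with ten 3-fold compound dilutions in 0.44% final DMSO. Percent inhibition relative to DMSO was fitted with a Hill equation to give EC50 and CC50.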

Structure (SMILES) | inhibition at 2 µM [%]
Cc1nnc(S[C@H]2CC[C@H](N(c3cc(C#CC(C)(C)C)sc3C(=O)O)C(=O)[C@H]3CC[C@H](C)CC3)CC2)s1 [Compound 102, 5-(3,3-Dimethylbut-1-ynyl)-3-(4-methyl-N-(4-(5-methyl-1,3,4-thiadiazol-2-ylthio)cyclohexyl)cyclohexanecarboxamido)thiophene-2-carboxylic acid] | 99.9
Cc1nnc(S[C@H]2CC[C@@H](N(c3cc(C#CC(C)(C)C)sc3C(=O)O)C(=O)[C@H]3CC[C@H](C)CC3)CC2)s1 [Compound 103, 5-(3,3-Dimethylbut-1-ynyl)-3-(4-methyl-N-(4-(5-methyl-1,3,4-thiadiazol-2-ylthio)cyclohexyl)cyclohexanecarboxamido)thiophene-2-carboxylic acid] | 98.3
Cn1nnnc1S[C@H]1CC[C@@H](N(c2cc(C#CC(C)(C)C)sc2C(=O)O)C(=O)[C@H]2CC[C@H](C)CC2)CC1 [Compound 104, 5-(3,3-Dimethylbut-1-ynyl)-3-(4-methyl-N-(4-(1-methyl-1H-tetrazol-5-ylthio)cyclohexyl)cyclohexanecarboxamido)thiophene-2-carboxylic acid] | 98.7
CC(C)(C)C#Cc1cc(N(C(=O)[C@H]2CC[C@H](C)CC2)[C@H]2CC[C@@H](Sc3nncs3)CC2)c(C(=O)O)s1 [Compound 105, 3-(N-(4-(1,3,4-Thiadiazol-2-ylthio)cyclohexyl)-4-methylcyclohexanecarboxamido)-5-(3,3-dimethylbut-1-ynyl)thiophene-2-carboxylic acid] | 99.9
CC(C)(C)C#Cc1cc(N(C(=O)[C@H]2CC[C@H](C)CC2)[C@H]2CC[C@H](Sc3nccs3)CC2)c(C(=O)O)s1 [Compound 106, 5-(3,3-Dimethylbut-1-ynyl)-3-(4-methyl-N-(4-(thiazol-2-ylthio)cyclohexyl)cyclohexanecarboxamido)thiophene-2-carboxylic acid] | 99.9
CC(C)(C)C#Cc1cc(N(C(=O)[C@H]2CC[C@H](C)CC2)[C@H]2CC[C@@H](Sc3nccs3)CC2)c(C(=O)O)s1 [Compound 107, 5-(3,3-Dimethylbut-1-ynyl)-3-(4-methyl-N-(4-(thiazol-2-ylthio)cyclohexyl)cyclohexanecarboxamido)thiophene-2-carboxylic acid] | 98.9
CC(C)(C)C#Cc1cc(N(C(=O)[C@H]2CC[C@H](C)CC2)[C@H]2CC[C@@H](Sc3ncccn3)CC2)c(C(=O)O)s1 [Compound 108, 5-(3,3-Dimethylbut-1-ynyl)-3-(4-methyl-N-(4-(pyrimidin-2-ylthio)cyclohexyl)cyclohexanecarboxamido)thiophene-2-carboxylic acid] | 99.3
CC(C)(C)C#Cc1cc(N(C(=O)[C@H]2CC[C@H](C)CC2)[C@H]2CC[C@H](S(=O)(=O)C3CCOCC3)CC2)c(C(=O)O)s1 [Compound 109, 5-(3,3-Dimethylbut-1-ynyl)-3-(4-methyl-N-(4-(tetrahydro-2H-pyran-4-ylsulfonyl)cyclohexyl)cyclohexanecarboxamido)thiophene-2-carboxylic acid] | 99.9
Cn1nnnc1S(=O)(=O)[C@H]1CC[C@H](N(c2cc(C#CC(C)(C)C)sc2C(=O)O)C(=O)[C@H]2CC[C@H](C)CC2)CC1 [Compound 110, 5-(3,3-Dimethylbut-1-ynyl)-3-(4-methyl-N-(4-(1-methyl-1H-tetrazol-5-ylsulfonyl)cyclohexyl)cyclohexanecarboxamido)thiophene-2-carboxylic acid] | 100
Cn1nnnc1[S+]([O-])[C@H]1CC[C@H](N(c2cc(C#CC(C)(C)C)sc2C(=O)O)C(=O)[C@H]2CC[C@H](C)CC2)CC1 (stereo partly drawn) [Compound 111, 5-(3,3-Dimethylbut-1-ynyl)-3-((1r,4S)-4-methyl-N-(4-((R)-1-methyl-1H-tetrazol-5-ylsulfinyl)cyclohexyl)cyclohexanecarboxamido)thiophene-2-carboxylic acid] | 99.8
CC1CCC(C(=O)N(CCOc2cccnc2)c2cc(C#CC(C)(C)C)sc2C(=O)O)CC1 (stereo not shown) [Compound 138] | 99.7
CC1CCC(C(=O)N(CCOc2ccccn2)c2cc(C#CC(C)(C)C)sc2C(=O)O)CC1 (stereo not shown) [Compound 139, 5-(3,3-dimethyl-but-1-ynyl)-3-{(4-methyl-cyclohexanecarbonyl)-[3-(pyridin-2-yloxy)-ethyl]-amino}-thiophene-2-carboxylic acid] | 96.4
C[C@@H](CCOc1cncnc1)N(c1cc(C#CC(C)(C)C)sc1C(=O)O)C(=O)[C@H]1CC[C@H](C)CC1 [Compound 143, 5-(3,3-dimethyl-but-1-ynyl)-3-{(trans-4-methyl-cyclohexanecarbonyl)-[1-(S)-methyl-3-(pyrimidin-5-yloxy)-propyl]-amino}-thiophene-2-carboxylic acid] | 100
CCOc1cc(OCC[C@H](C)N(c2cc(C#CC(C)(C)C)sc2C(=O)O)C(=O)[C@H]2CC[C@H](C)CC2)c2ccc(OC)c(C)c2n1 [Compound 144, 5-(3,3-dimethyl-but-1-ynyl)-3-[[3-(2-ethoxy-7-methoxy-8-methyl-quinolin-4-yloxy)-1-(S)-methyl-propyl]-(4-methyl-cyclohexanecarbonyl)-amino]-thiophene-2-carboxylic acid] | 95.4
CC(C)(C)C#Cc1cc(N(C(=O)[C@H]2CC[C@H](C)CC2)[C@H]2C[C@@H](Oc3ccccn3)C2)c(C(=O)O)s1 [Compound 146, 5-(3,3-Dimethylbut-1-ynyl)-3-(4-methyl-N-(3-(pyridin-2-yloxy)cyclobutyl)cyclohexanecarboxamido)thiophene-2-carboxylic acid] | 99.2
CC(C)(C)C#Cc1cc(N(C(=O)[C@H]2CC[C@H](C)CC2)[C@H]2CC[C@H](Oc3cc[nH]c(=O)n3)CC2)c(C(=O)O)s1 [Compound 147, 5-(3,3-Dimethyl-but-1-ynyl)-3-{(trans-4-methyl-cyclohexanecarbonyl)-[trans-4-(2-oxo-1,2-dihydro-pyrimidin-4-yloxy)-cyclohexyl]-amino}-thiophene-2-carboxylic acid] | 99.9
CCc1cnc(O[C@H]2CC[C@H](N(c3cc(C#CC(C)(C)C)sc3C(=O)O)C(=O)[C@H]3CC[C@H](C)CC3)CC2)nc1 [Compound 148, 5-(3,3-Dimethylbut-1-ynyl)-3-(N-(4-(5-ethylpyrimidin-2-yloxy)cyclohexyl)-4-methylcyclohexanecarboxamido)thiophene-2-carboxylic acid] | 96.6
CC(C)(C)C#Cc1cc(N(C(=O)[C@H]2CC[C@H](C)CC2)[C@H]2CC[C@H](Oc3cccnc3N3CCCC3)CC2)c(C(=O)O)s1 [Compound 149, 5-(3,3-Dimethylbut-1-ynyl)-3-(4-methyl-N-(4-(2-(pyrrolidin-1-yl)pyridin-3-yloxy)cyclohexyl)cyclohexanecarboxamido)thiophene-2-carboxylic acid] | 99

Same assay, conditions: Huh-7 HCV replicon cells, 3 days incubation

Structure (SMILES) | % inhibition at 2μM [%]
CC(C)(C)C#Cc1cc(N(C(=O)[C@H]2CC[C@H](C)CC2)[C@H]2C[C@@H](Oc3ccc[n+]([O-])c3)C2)c(C(=O)O)s1 [Compound 145, 5-(3,3-Dimethyl-but-1-ynyl)-3-{(trans-4-methyl-cyclohexanecarbonyl)-[cis-3-(pyridin-3-yloxy-N-oxide)-cyclobutyl]-amino}-thiophene-2-carboxylic acid] | 99.5
